Results published in patent EP4792818A1, “COMPOUND SUITABLE FOR EXTERNAL USE, AND PHARMACEUTICAL COMPOSITION” (EnKang Pharmaceuticals (Guangzhou), Ltd., priority 2023, dated 2025).
Where two headings read alike, the source gives them in different places.

Columns and labels:
A431 cells = test system: A431 cells
Description: (§1) The experimental procedures were as follows: The cells were subcultured in a complete medium containing 10% FBS in an incubator at 37 °C with 5% CO2 and saturated humidity. The cell density was adjusted to (3-5) × 10^4 cells/mL using a complete medium containing 10% FBS. The cell suspension was added to the wells of a 96-well culture plate at 100 µL/well, and the plate was incubated in an incubator at 37 °C with 5% CO2 and saturated humidity overnight (for about 16-24 hrs). Various dose groups of the test substance and a solvent control group were set. On the next day, the original culture medium was discarded. Subsequently, 20% FBS-containing complete medium was added at 100 µL/well, and the test substance or solvent in FBS-free medium was then added at 100 µL/well, resulting in a final FBS concentration of 10%. Meanwhile, a negative control group was set: each well received 100 µL of 20% FBS-containing complete medium + 100 µL of incomplete medium containing cells, resulting in a final FBS concentration of 10%. A zero adjustment group (background) was also set: 200 µL of the culture medium alone (100 µL of 20% FBS-containing complete medium + 100 µL of incomplete medium), without drugs and cells. For each concentration group, four replicate wells were set.
(§2) After incubation for 48 hrs under the experimental conditions, the supernatant was discarded, and 110 µL of CCK-8 working solution (100 µL of 10% FBS-containing complete medium and 10 µL of CCK-8 solution) were added to each well. The cells were further incubated for 4 hrs, and the optical density value at a wavelength of 450 nm (A450) was then measured for each well using a microplate reader. The average value for the wells of each treatment group (T) was compared with the average value for the negative control wells (C). The percent inhibition rate of each concentration group was calculated using the following formula: [Inhibition rate = (1 - T/C) × 100%], and the half-maximal inhibitory concentration (IC50) was calculated.

COLO-16 cells [1] = test system: COLO-16 cells
Description: as §1, §2

SCL-1 cells [2] = test system: SCL-1 cells
Description: as §1, §2

[3] = test system: TE.354.T cells (human cutaneous basal cell carcinoma)
Description: The experimental procedures were as follows: The cells were subcultured in a complete medium containing 10% FBS in an incubator at 37 °C with 5% CO2 and saturated humidity. The cell density was adjusted to (3-5) × 10^4 cells/mL using a complete medium containing 10% FBS. The cell suspension was added to the wells of a 96-well culture plate at 100 µL/well, and the plate was incubated in an incubator at 37 °C with 5% CO2 and saturated humidity overnight (for about 16-24 hrs). Various dose groups of the test substance and a solvent control group were set. On the next day, the original culture medium was discarded. Subsequently, 20% FBS-containing complete medium was added at 100 µL/well, and the test substance or solvent in FBS-free medium was then added at 100 µL/well, resulting in a final FBS concentration of 10%. Meanwhile, a negative control group was set: each well received 100 µL of 20% FBS-containing complete medium + 100 µL of incomplete medium containing cells, resulting in a final FBS concentration of 10%. A zero adjustment group (background) was also set: 200 µL of the culture medium alone (100 µL of 20% FBS-containing complete medium + 100 µL of incomplete medium), without drugs and cells. For each concentration group, four replicate wells were set. […]

SCL-1 cells [4] = details: SCL-1 tumor-bearing nude mice, 21 days
Description: (§3) Quarantine-qualified male BALB/c-nu nude mice weighing 13.4-20.5 g were each inoculated with 0.2 mL of SCL-1 cells in logarithmic growth phase at 3 x 10^6 cells/mL (with Matrigel and cell suspension mixed in a ratio of 1:2) in the right axilla. […] The drug was kept in contact with the skin for 4 hrs per administration, and the treatment was given to each group for three consecutive weeks. During the treatment period, the long diameter (a) and short diameter (b) of the tumors were measured using a vernier caliper every 3 days. Then, the tumor volume (TV), relative tumor volume (RTV), and relative tumor proliferation rate (T/C, %) were calculated. After the final administration, the tumor tissues were dissected out and weighed to calculate the tumor growth inhibition rates.

COLO-16 cells [5] = details: COLO-16 tumor-bearing nude mice, 21 days
Description: as §3, with “weighing 13.7-21.1” for “weighing 13.4-20.5”, “of COLO-16” for “of SCL-1”, “at 6.7” for “at 3”, “cells/mL” for “cells/mL (with Matrigel and cell suspension mixed in a ratio of 1:2)”

[6] = 20 °C
[7] = for Labeled amount (%) / Related substances (%) Impurity A / Related substances (%) Impurity B / Related substances (%) Impurity C / Related substances (%) Impurity D / Related substances (%) Impurity E / Related substances (%) Impurity F / Related substances (%) RRT0.73 / Related substances (%) RRT1.10 / Related substances (%) RRT2.18 / Related substances (%) Total impurities: mixed with CMC-Na 1:5
[8] = topical gel; for plasma drug concentrations above the LLOQ: 0.008-0.06 mg/cm^2, LLOQ 0.02 ng/mL
[9] = test system: human liver cancer HepG2 cells; details: documented in CN 104736157 A; cited from earlier work
[10] = High humidity for 10 days (RH 90%±5%)
[11] = High temperature for 10 days (60 °C±2 °C)

SMILES: CO[C@H]1[C@H](O)[C@H](O[C@H]2CC[C@@]3(C)[C@H](CC[C@@H]4[C@@H]3CC[C@]3(C)[C@@H](C5=CC(=O)OC5)CC[C@]43O)C2)O[C@@H](C)[C@@H]1O [17β-neriifolin]
- growth inhibitory effects (A431 cells): strong growth inhibitory effects
- growth inhibitory effects (COLO-16 cells [1]): strong growth inhibitory effects
- growth inhibitory effects (SCL-1 cells [2]): strong growth inhibitory effects
- growth inhibitory effects [3]: strong growth inhibitory effects
- anti-tumor effect compared with Imiquimod cream (50 mg/g) (SCL-1 cells [4]): significantly superior to that of Imiquimod cream
- anti-tumor effect compared with Imiquimod cream (50 mg/g) (COLO-16 cells [5]): significantly superior to that of Imiquimod cream
- Dissolution behavior ([6]; Ethanol concentration 20 %, sample concentration 8 mg/g): dissolved
- Dissolution behavior ([6]; Ethanol concentration 20 %, sample concentration 8 mg/g, listed as 17β-Neriifolin): Dissolved
- Dissolution behavior ([6]; Ethanol concentration 45 %, sample concentration 20 mg/g): dissolved
- Dissolution behavior ([6]; Ethanol concentration 45 %, sample concentration 20 mg/g, listed as 17β-Neriifolin): Dissolved
- Dissolution behavior ([6]; Ethanol concentration 50 %, sample concentration 24 mg/g): Dissolved
- Dissolution behavior ([6]; Ethanol concentration 66 %, sample concentration 32 mg/g): Dissolved
- Dissolution behavior ([6]; Ethanol concentration 75 %, sample concentration 40 mg/g): Dissolved
- Dissolution behavior ([6]; Ethanol concentration 100 %, sample concentration 50 mg/g): Dissolved
- impact of high temperature, high humidity, and illumination on the related substances and drug content ([7]; combined with sodium carboxymethyl cellulose 1:5, 10 days): no impact
- stability of the combination with sodium carboxymethyl cellulose compared with the combination with Carbomer ([7]; mass ratio 1:5, 10 days, high temperature, high humidity, illumination): significantly superior
- Labeled amount (%) ([7]; 0 days): 99.56%
- Related substances (%) Impurity A ([7]; 0 days): 0.17%
- Related substances (%) Impurity B ([7]; 0 days): 0.36%
- Related substances (%) Impurity C ([7]; 0 days): 0.25%
- Related substances (%) Impurity D ([7]; 0 days): 0.13%
- Related substances (%) Impurity E ([7]; 0 days): 0.15%
- Related substances (%) Impurity F ([7]; 0 days): 0.14%
- Related substances (%) RRT0.73 ([7]; 0 days): 0.05%
- Related substances (%) RRT1.10 ([7]; 0 days): 0.04%
- Related substances (%) RRT2.18 ([7]; 0 days): 0.03%
- Related substances (%) Total impurities ([7]; 0 days): 1.32%
- Labeled amount (%) [7, 10]: 99.42%
- Related substances (%) Impurity A [7, 10]: 0.17%
- Related substances (%) Impurity B [7, 10]: 0.36%
- Related substances (%) Impurity C [7, 10]: 0.25%
- Related substances (%) Impurity D [7, 10]: 0.13%
- Related substances (%) Impurity E [7, 10]: 0.15%
- Related substances (%) Impurity F [7, 10]: 0.14%
- Related substances (%) RRT0.73 [7, 10]: 0.05%
- Related substances (%) RRT1.10 [7, 10]: 0.04%
- Related substances (%) RRT2.18 [7, 10]: 0.03%
- Related substances (%) Total impurities [7, 10]: 1.32%
- Labeled amount (%) [7, 11]: 100.95%
- Related substances (%) Impurity A [7, 11]: 0.17%
- Related substances (%) Impurity B [7, 11]: 0.36%
- Related substances (%) Impurity C [7, 11]: 0.25%
- Related substances (%) Impurity D [7, 11]: 0.13%
- Related substances (%) Impurity E [7, 11]: 0.15%
- Related substances (%) Impurity F [7, 11]: 0.14%
- Related substances (%) RRT0.73 [7, 11]: 0.05%
- Related substances (%) RRT1.10 [7, 11]: 0.04%
- Related substances (%) RRT2.18 [7, 11]: 0.03%
- Related substances (%) Total impurities [7, 11]: 1.32%
- Labeled amount (%) ([7]; Strong light for 10 days): 99.96%
- Related substances (%) Impurity A ([7]; Strong light for 10 days): 0.17%
- Related substances (%) Impurity B ([7]; Strong light for 10 days): 0.36%
- Related substances (%) Impurity C ([7]; Strong light for 10 days): 0.25%
- Related substances (%) Impurity D ([7]; Strong light for 10 days): 0.13%
- Related substances (%) Impurity E ([7]; Strong light for 10 days): 0.15%
- Related substances (%) Impurity F ([7]; Strong light for 10 days): 0.14%
- Related substances (%) RRT0.73 ([7]; Strong light for 10 days): 0.05%
- Related substances (%) RRT1.10 ([7]; Strong light for 10 days): 0.04%
- Related substances (%) RRT2.18 ([7]; Strong light for 10 days): 0.03%
- Related substances (%) Total impurities ([7]; Strong light for 10 days): 1.32%
- plasma drug concentrations above the LLOQ ([8]; four Australian subjects): 0.021 to 0.101 ng/mL
- plasma drug concentrations above the LLOQ ([8]; seven Chinese subjects): 0.022 to 0.106 ng/mL
- dose dependence of systemic exposure ([8]; 0.008-0.06 mg/cm^2 dose range): No dose-dependent increase
- cell cycle arrest and apoptosis [9]: induce cell cycle arrest and apoptosis
